In patent US6013802A, “Fluorescent conjugates of metal-chelating nitrogen heterocycles” (Molecular Probes, Inc., priority 1997, dated 2000):

Assay: Fluorescent detection of Cu2+ in seawater (high salt)
Settings: 1 μM dye in seawater; zero to 10 μM added Cu2+ (CuCl2)
Procedure: The metal-ion indicators of the present invention can be used to detect low levels of target ions in the presence of very high concentrations of other mono- and divalent cations. For example, a solution of a green fluorescent phenanthroline derivative (as described in Example 1) is diluted into freshly collected, unfiltered seawater to give a dye concentration of 1 μM. Using 10 mM EGTA, pH 7.20, 100 mM KCL in 10 mM MOPS as a standard, the fluorescence emission of the indicator solution is scanned from 450 nm to 650 nm in a Perkin Elmer PE-450 fluorimeter with excitation at 488 nm.

In the case of `O=C1OC2(c3ccc(O)cc3Oc3cc(O)ccc32)c2ccc(NC(=S)Nc3cc4cccnc4c4ncccc34)cc21`, the “fluorescence emission remaining, of original emission intensity, after added Cu^2+” value is reported as “approximately 10%”.
